Several values for one entry are separate records, joined by “and”; a condition that tells them apart may be missing. Equal values may be shown once. Entries after “also recorded” stand apart in the source; their conditions may differ.
Assays:
Format in all cases: physicochemical
[1] = Kinetics of RSSH release from precursors monitored by HPLC (HPE-IAM trapping); settings: for Hydropersulfide Yield (%): precursor 100 μM, HPE-IAM 5 mM, pH 7.4 phosphate buffer with DTPA
Description: (§1) Precursors 7a-d were dissolved in DMSO to afford 10 mM stock solutions. HPE-IAM was dissolved in DMSO to obtain a 100 mM stock solution. […] This solution was pre-incubated for 10 min at 37° C. and then precursor 7a-d (30 μL, 10 mM) were independently added into the mixture. The resulting solution was incubated at 37° C. At different time points, an aliquot of 200 μL was taken and quenched with 200 μL […] solution. These samples were stored at 0° C. until HPLC analysis was performed. The sample (20 μL) was injected into a high-performance liquid chromatography (HPLC) equipped with Phenomenex C-18 reverse phase column (250 mm×4.6 mm, 5 μm). HPLC Method: mobile phase A (H2O) and mobile phase B (ACN), flow rate: 1 mL/min, run time: 20 min, the gradient elution method: 10% to 40% B from 0 to 12 min, 40% to 80% B from 12 to 20 min. The elution was monitored by a UV detector at 275 nm. A calibration curve was generated using RSS-HPE-AM 9 to quantify RSSH generation from 7a-d.
as §1, with “by a variable UV detector” for “by a UV detector”

[2] = RSSH generation in the presence of N-acetyl cysteine by UPLC-MS; settings: NAC 500 μM, 37° C.; for Byproduct % (yield of cyclic urea 2a-d): precursor 100 μM, pH 7.4 ammonium bicarbonate buffer with DTPA
Description: […] The resulting mixture was incubated at 37° C. An aliquot (200 μL) of reaction mixture was withdrawn at specified time points and quenched with 1% formic acid (200 μL). 3-Amino-benzoic acid (50 μM) was added to each sample as internal standard prior to UPLC-MS analysis. To quantify 2a-d generated from these precursors, a calibration curve for each individual cyclic urea with known concentrations was independently generated.
[…] The resulting mixture was incubated at 37° C. An aliquot ([…]) of reaction mixture was withdrawn at specified time points and quenched with 1% formic acid (200 μL). 3-amino-benzoic acid (50 μM) was added to each sample as internal standard prior to UPLC-MS analysis. To quantify 2a-d generated from these precursors, the calibration curve of each individual cyclic urea with known concentrations was independently generated.

[3] = COS release using membrane inlet mass spectrometry (MIMS); settings: for COS release (m/z=60 signal): precursor 50 μM, pH 7.4 phosphate buffer saline with DTPA, 37° C.
Description: (§2) COS was analyzed using a Hiden HPR-40 MIMS system with a sample cell and membrane probe that have been optimized to detect gases dissolved in aqueous solution as described previously. Cline et al., 2011. A stock solution of N-acetyl-cysteine (25 mM) was prepared in DI water. RSSH precursor stock solutions (5 mM) were prepared in DMSO. These solutions were degassed by purging with nitrogen for 10 min before COS release analysis. Typically, 20 mL phosphate buffer solution (10 mM) was added to the sample cell, degassed and purged with a continuous flow of argon for 15 min. N-acetyl cysteine (200 μL, 25 mM) and RSSH precursor (200 μL, 5 mM) were then injected using a gas tight syringe and ion current at m/z 60 (COS^+) were collected for 2 h (source pressure was approximately 1×10^−7 to 5×10^−7 Torr).
as §2, with “(COS*)” for “(COS^+)”

Compound	Hydropersulfide Yield (%) ([1]; 37° C.)	Byproduct % (yield of cyclic urea 2a-d) [2]	COS release (m/z=60 signal) ([3]; NAC 0.25 mM (5 equiv.))	rate constant k of RSSH release ([1]; pH 6.0) [min⁻¹]	first-order rate constant k of RSSH release (RSS-HPE-AM 9 generation) ([1]; pH 7.4 phosphate buffer, HPE-IAM, 37° C., HPLC)	rate constant k of RSSH release ([1]; pH 8.0) [min⁻¹]	COS release (m/z=60 signal) ([3]; without NAC)	RSSH release under acidic conditions ([2]; 7b 100 μM, pH 6.0 ammonium acetate buffer 50 mM, 12 h)	COS release in the presence of GSH compared with NAC ([3]; pH 7.4, GSH)
3-(((3-acetamido-4-methoxy-2-methyl-4-oxobutan-2-yl)disulfannecarbonyl)(methyl)amino)-N-methylpropan-1-aminium [Precursor 7c]	90% and 90 ± 1%	19.2 ± 0.5%	produce mainly COS	–	–	–	–	–	–
CNCCN(C)C(=O)SSC(C)(C)C(NC(C)=O)C(=O)OC (stereo not drawn) [Precursor 7a, 2-(((3-acetamido-4-methoxy-2-methyl-4-oxobutan-2-yl)disulfannecarbonyl)(methyl)amino)-N-methylethan-1-aminium]	89% and 89 ± 3%	87% and 87 ± 1%	small additional increase	0.031	0.505 min⁻¹ and 0.505 ± 0.019 min⁻¹	2.58	very small increase	–	–
COC(=O)C(NC(C)=O)C(C)(C)SSC(=O)N(C)CCN (stereo not drawn) [Precursor 7b, 2-(((3-acetamido-4-methoxy-2-methyl-4-oxobutan-2-yl)disulfannecarbonyl)(methyl)amino)ethan-1-aminium]	94 ± 1%	58% and 58 ± 0.7%	increased production of COS	–	–	–	–	still observed, albeit at a slower rate; also recorded: slow RSSH release under acidic conditions	slightly higher/faster COS release

— US11584712B2, “Alkylamine-substituted perthiocarbamates as dual precursors to hydropersulfide and carbonyl sulfide” (The Johns Hopkins University, priority 2020, dated 2023)
